# Reference: US4677069A, “Clam derived proteinases” (priority 1984, dated 1987)
# Counter-ions that a name gives are not always drawn. *1 amine or outer side, *2 acyl side, *3 side chain or, on linkers, in order; H or OH if unused. Where a SMILES comes first, the peptide text is derived from it. [ ]: non-standard residue; d: D form. The star is where a group is joined. Sta = CC(C)C[C@H](N)[C@@H](O)CC(=O)O; Isovaleryl = CC(C)CC(=O)*; CO = O=C([*:1])[*:2]
# B1: Gastricin: carboxyl proteinase, stomach (protein, UniProt P20142 60-388, looked up)
# Gastricsin: SVTYEPMAYMDAAYFGEISIGTPPQNFLVLFDTGSSNLWVPSVYCQSQACTSHSRFNPSESSTYSTNGQTFSLQYGSGSLTGFFGYDTLTVQSIQVPNQEFGLSENEPGTNFVYAQFDGIMGLAYPALSVDEATTAMQGMVQEGALTSPVFSVYLSNQQGSSGGAVVFGGVDSSLYTGQIYWAPVTQELYWQIGIEEFLIGGQASGWCSEGCQAIVDTGTSLLTVPQQYMSALLQATGAQEDEYGQFLVNCNSIQNLPSLTFIINGVEFPLPPSSYILSNNGYCTVGVEPTYLSSQNGQPLWILGDVFLRSYYSVYDLGNNRVGFATAA
# What was measured:
# [1] = cited from earlier work; for Optimum pH: Table 7, literature
# [2] = test system: PI & II; assay: Heavy metal effect on proteolytic activity of PI & II; format: biochemical, surf clam, Spisula solidissima; conditions: for PI & II % Retention / PI & II Activity (HU/ml): metal ions 0.5 mM, pH 2.8; for PI & II Activity (HU/ml): control 214.7
# Procedure: (§1) The effect of heavy metals on proteolytic activity was determined by preincubating a mixture of 5 mM heavy metal stock solution (0.3 ml), 0.2M citrate-phosphate buffer at pH 2.8 (1.6 ml) and enzyme solution (0.1 ml) at room temperature for 10 min before the addition of substrate. All stock solutions of metals were made from chloride salts, except that silver was prepared from the nitrate salt.
# [3] = test system: PIII; assay: Heavy metal effect on proteolytic activity of PIII; format: biochemical, surf clam, Spisula solidissima; conditions: for effect of metal ion on PIII: general assay procedure; for PIII % Retention / PIII Activity (HU/ml): metal ions 0.5 mM, pH 2.8; for PIII Activity (HU/ml): control 258.7
# Procedure: as §1
# [4] = test system: PI & II; assay: Inhibitor effect on proteolytic activity of PI & II; format: biochemical, surf clam, Spisula solidissima
# Procedure: All inhibitors were from Sigma Co. (St. Louis, MO). The stock solutions were prepared by dissolving the inhibitors either in water or dimethyl sulfoxide (DMSO) as following:
# (§2) Water--Leupeptin hemisulfate (60 ug/ml), Antipain (60 ug/ml), Poly-L-lysine(60 mg/ml), soybean trypsin inhibitor (60 mg/ml), ovomucoid trypsin inhibitor (60 mg/mL), Tosyl-lysine chloromethyl ketone (TLCK, 60 mM) and iodoacetamide (60 mM).
# (§3) DMSO--Pepstatin (60 ug/ml), Tosyl-phenylalanine chloromethyl ketone (TPCK, 60 mM), Phenylmethanesulphonylfluoride (PMSF, 60 mM), and Diazoacetylnorleucine methyl ester (DNME, 60 mM).
# [5] = test system: PIII; assay: Inhibitor effect on proteolytic activity of PIII; format: biochemical, surf clam, Spisula solidissima
# Procedure: The effect of inhibitors on proteolytic activity was determined by preincubating a mixture of inhibitor stock solution (0.05 ml), 0.2M citrate-phosphate buffer at pH 2.8 (1.7 ml) and enzyme solution (0.25 ml) for 10 min at room temperature before the addition of substrate. All inhibitors were from Sigma Co. (St. Louis, MO). The stock solutions were prepared by dissolving the inhibitors either in water or dimethyl sulfoxide (DMSO) as following:
# as §2, §3
# [6] = test system: P2.2 enzyme; assay: Stabilization of P2.2 activity with reducing and chelating agents; conditions: EDTA or cysteine alone
# [7] = 1 ug/ml, pH 2.8, 10 min preincubation
Molecule,Optimum pH [1],PI & II % Retention [2],PI & II Activity (HU/ml) [2],PIII % Retention [3],PIII Activity (HU/ml) [3],also measured
"Cathepsin D: mammalian carboxyl proteinase, literature comparator",2.8-5.0,,,,,"Activators, mammalian cathepsins ([1]; Table 11, literature): none; Temperature optima, mammalian cathepsins ([1]; Table 11, literature): 45 °C; pH optima hemoglobin, mammalian cathepsins ([1]; Table 11, literature): 2.8-3.5; pH stability, mammalian cathepsins ([1]; unstable at pH > 7, literature): unstable"
[Pb+2] [Pb++],,99.7%,214.0 HU/ml,96.9%,250.7 HU/ml,"effect of metal ion on PIII [3]: didn't inhibit; PIII activity detected, addition order of buffer and inhibitor solution reversed ([3]; reversed addition order): 20.7%"
Cathepsin G,~ 7.5,,,,,
Urokinase,7.5-7.6,,,,,
Renin,5.5-8.0,,,,,
CC(=O)N[C@@H](CC(C)C)C(=O)N[C@@H](CC(C)C)C(=O)N[C@H](C=O)CCCNC(=N)N [Leupeptin hemisulfate],,,,,,"% Residual activity PI & II, final conc. 1 ug/ml [4, 7]: 96.5%; effect of inhibitor on PIII [5]: inhibited; % Residual activity PIII, final conc. 1 ug/ml [5, 7]: 33.4%"
CC(C)CC(=O)N[C@H](C(=O)N[C@H](C(=O)N[C@@H](CC(C)C)[C@@H](O)CC(=O)N[C@@H](C)C(=O)N[C@@H](CC(C)C)[C@@H](O)CC(=O)O)C(C)C)C(C)C [Pepstatin] (Isovaleryl-VV[Sta]A[Sta]-OH),,,,,,"effect of inhibitor on PI&II [4]: strongly inhibited; % Residual activity PI & II, final conc. 1 ug/ml [4, 7]: 25.0%; % Residual activity PIII, final conc. 1 ug/ml [5, 7]: 99.4%"
Elastase,8.2-8.5,,,,,
"O=S(=O)(F)Cc1ccccc1 [PMSF, phenylmethanesulphonylfluoride]",,,,,,"% Residual activity PI & II, final conc. 1 mM ([4]; pH 2.8, 10 min preincubation): 102.2%; effect of inhibitor on PIII [5]: inhibited; % Residual activity PIII, final conc. 1 mM ([5]; pH 2.8, 10 min preincubation): 53.5%"
Cl.N[C@@H](CS)C(=O)O [Cysteine-HCl],,,,,,"optimum concentration for stabilizing P2.2, reagent alone [6]: 2.5 mM"
[Sn+2] [Sn++],,88.8%,190.6 HU/ml,83.7%,216.5 HU/ml,effect of metal ion on PIII [3]: inhibits PIII slightly
Poly-L-lysine,,,,,,"% Residual activity PI & II, final conc. 1 ug/ml ([4]; pH 2.8): 99.3%; % Residual activity PIII, final conc. 1 ug/ml ([5]; pH 2.8): 101.1%"
"Cc1ccc(S(=O)(=O)NC(CCCCN)C(=O)CCl)cc1 (centres unmarked) [TLCK, tosyllysine chloromethyl ketone]",,,,,,"% Residual activity PI & II, final conc. 1 mM ([4]; pH 2.8, 10 min preincubation): 96.2%; effect of inhibitor on PIII [5]: inhibited; % Residual activity PIII, final conc. 1 mM ([5]; pH 2.8, 10 min preincubation): 16.8%"
"Cc1ccc(S(=O)(=O)NC(Cc2ccccc2)C(=O)CCl)cc1 (centres unmarked) [TPCK, tosylphenylalanine chloromethyl ketone]",,,,,,"% Residual activity PI & II, final conc. 1 mM ([4]; pH 2.8, 10 min preincubation): 96.4%; effect of inhibitor on PIII [5]: inhibited; % Residual activity PIII, final conc. 1 mM ([5]; pH 2.8, 10 min preincubation): 21.2%"
[Cd+2] [Cd++],,96.3%,206.7 HU/ml,96.4%,249.4 HU/ml,
[Mg+2] [Mg++],,98.5%,211.4 HU/ml,98.2%,254.0 HU/ml,
Pepsin,1.7-2.0,,,,,"General proteolysis ([1]; Table 7, graded + to +++, literature): ++ +"

Molecule,Optimum pH [1],PI & II % Retention [2],PI & II Activity (HU/ml) [2],PIII % Retention [3],PIII Activity (HU/ml) [3],also measured
[Co+2] [Co++],,96.9%,208.0 HU/ml,90.7%,234.7 HU/ml,
[Ni+2] [Ni++],,96.0%,206.0 HU/ml,92.5%,239.4 HU/ml,
Kallikrein,8.6-8.8,,,,,
[Ag+] [Ag+],,102.2%,219.3 HU/ml,95.0%,245.8 HU/ml,
O=C(O)CN(CCN(CC(=O)O)CC(=O)O)CC(=O)O [Na2 --EDTA],,,,,,"optimum concentration for stabilizing P2.2, reagent alone [6]: 10 mM"
[Ca+2] [Ca++],,97.5%,209.4 HU/ml,99.2%,256.7 HU/ml,
"CCCC[C@H](NC(=O)C=[N+]=[N-])C(=O)OC [DNME, diazoacetylnorleucine methyl ester]",,,,,,"% Residual activity PI & II, final conc. 1 mM ([4]; pH 2.8, 10 min preincubation): 100.0%; effect of DNME on PI&II in the presence of cupric ions ([4]; with cupric ions, up to 4 hours of preincubation): not sensitive; effect of inhibitor on PIII [5]: very sensitive; % Residual activity PIII, final conc. 1 mM ([5]; pH 2.8, 10 min preincubation): 64.9%"
[Hg+2] [Hg++],,87.1%,187.0 HU/ml,0.0%,0.0 HU/ml,effect of metal ion on PIII [3]: extremely sensitive
"cathepsin L: thiol proteinase, liver",5.0-5.5,,,,,
Trypsin,~ 8.0,,,,,
[Cu+2] [Cu++],,95.7%,205.4 HU/ml,18.0%,46.7 HU/ml,effect of cupric ion on PI&II at or below 1 mM ([2]; at or below 1 mM cupric ion): not sensitive; effect of cupric ion on PIII at 1 mM ([3]; 1 mM cupric ion): Almost total inactivation; effect of metal ion on PIII [3]: very sensitive
[Zn+2] [Zn++],,90.4%,194.0 HU/ml,103.1%,266.7 HU/ml,
CC(C)[C@H](NC(=O)[C@H](CCCNC(=N)N)NC(=O)N[C@@H](Cc1ccccc1)C(=O)O)C(=O)N[C@H](C=O)CCCNC(=N)N [Antipain di-HCl] ({Phe-CO}-Arg-Val-Arg-aldehyde),,,,,,"% Residual activity PI & II, final conc. 1 ug/ml [4, 7]: 102.9%; % Residual activity PIII, final conc. 1 ug/ml [5, 7]: 89.7%"
NC(=O)CI [Iodoacetamide],,,,,,"% Residual activity PI & II, final conc. 1 mM ([4]; pH 2.8, 10 min preincubation): 98.9%; effect of inhibitor on PIII [5]: inhibited; % Residual activity PIII, final conc. 1 mM ([5]; pH 2.8, 10 min preincubation): 78.3%"
Chymotrypsin,~ 8.0,,,,,
B1,3.0,,,,,
